Laboratory results reported in patent US10238670B2, “9-aminomethyl minocycline compounds and methods of use thereof in urinary tract infection (UTI) treatment” (Paratek Pharmaceuticals, Inc., priority 2016, dated 2019).
Values after ≈ are worked out from the molar mass of the structure shown.

How the values were obtained:
Assay in all cases: In vitro MIC, 2010 surveillance isolates
E. coli ESBL− = assay type: cell-based, Escherichia coli
E. coli ESBL+ = assay type: cell-based, Escherichia coli
K. pneumoniae ESBL− = assay type: cell-based, Klebsiella pneumoniae
K. pneumoniae ESBL+ = assay type: cell-based, Klebsiella pneumoniae
K. oxytoca = assay type: cell-based
E. cloacae CeftazS = assay type: cell-based
E. cloacae CeftazR = assay type: cell-based
Enterobacter spp = assay type: cell-based
A. baumanii = assay type: cell-based
Acinetobacter spp = assay type: cell-based

- MIC90 (E. coli ESBL−; Asia/Pac, N=282): 4 µg/mL (≈ 6.83 µM)
- MIC90 (E. coli ESBL−; Europe, N=1533): 4 µg/mL (≈ 6.83 µM)
- MIC90 (E. coli ESBL−; L. Amer, N=389): 4 µg/mL (≈ 6.83 µM)
- MIC90 (E. coli ESBL−; N America, N=1172): 4 µg/mL (≈ 6.83 µM)
- MIC90 (E. coli ESBL+; Asia/Pac, N=219): 8 µg/mL (≈ 13.7 µM)
- MIC90 (E. coli ESBL+; Europe, N=274): 8 µg/mL (≈ 13.7 µM)
- MIC90 (E. coli ESBL+; L. Amer, N=168): 8 µg/mL (≈ 13.7 µM)
- MIC90 (E. coli ESBL+; N America, N=134): 8 µg/mL (≈ 13.7 µM)
- MIC90 (K. pneumoniae ESBL−; Asia/Pac, N=189): 2 µg/mL (≈ 3.42 µM)
- MIC90 (K. pneumoniae ESBL−; Europe, N=361): 2 µg/mL (≈ 3.42 µM)
- MIC90 (K. pneumoniae ESBL−; L. Amer, N=160): 2 µg/mL (≈ 3.42 µM)
- MIC90 (K. pneumoniae ESBL−; N America, N=671): 2 µg/mL (≈ 3.42 µM)
- MIC90 (K. pneumoniae ESBL+; Asia/Pac, N=124): > 32 µg/mL
- MIC90 (K. pneumoniae ESBL+; Europe, N=151): 32 µg/mL (≈ 54.6 µM)
- MIC90 (K. pneumoniae ESBL+; L. Amer, N=209): > 32 µg/mL
- MIC90 (K. pneumoniae ESBL+; N America, N=108): 32 µg/mL (≈ 54.6 µM)
- MIC90 (K. oxytoca; Asia/Pac, N=17): 2 µg/mL (≈ 3.42 µM)
- MIC90 (K. oxytoca; Europe, N=158): 2 µg/mL (≈ 3.42 µM)
- MIC90 (K. oxytoca; L. Amer, N=25): 32 µg/mL (≈ 54.6 µM)
- MIC90 (K. oxytoca; N America, N=177): 2 µg/mL (≈ 3.42 µM)
- MIC90 (E. cloacae CeftazS; Asia/Pac, N=100): 2 µg/mL (≈ 3.42 µM)
- MIC90 (E. cloacae CeftazS; Europe, N=183): 2 µg/mL (≈ 3.42 µM)
- MIC90 (E. cloacae CeftazS; L. Amer, N=57): 16 µg/mL (≈ 27.3 µM)
- MIC90 (E. cloacae CeftazS; N America, N=210): 2 µg/mL (≈ 3.42 µM)
- MIC90 (E. cloacae CeftazR; Asia/Pac, N=63): 16 µg/mL (≈ 27.3 µM)
- MIC90 (E. cloacae CeftazR; Europe, N=72): 8 µg/mL (≈ 13.7 µM)
- MIC90 (E. cloacae CeftazR; L. Amer, N=42): 16 µg/mL (≈ 27.3 µM)
- MIC90 (E. cloacae CeftazR; N America, N=77): 4 µg/mL (≈ 6.83 µM)
- MIC90 (Enterobacter spp; Asia/Pac, N=52): 2 µg/mL (≈ 3.42 µM)
- MIC90 (Enterobacter spp; Europe, N=82): 4 µg/mL (≈ 6.83 µM)
- MIC90 (Enterobacter spp; L. Amer, N=42): 4 µg/mL (≈ 6.83 µM)
- MIC90 (Enterobacter spp; N America, N=101): 2 µg/mL (≈ 3.42 µM)
- MIC90 (A. baumanii; Asia/Pac, N=275): > 32 µg/mL
- MIC90 (A. baumanii; Europe, N=145): > 32 µg/mL
- MIC90 (A. baumanii; L. Amer, N=275): > 32 µg/mL
- MIC90 (A. baumanii; N America, N=154): > 32 µg/mL
- MIC90 (Acinetobacter spp; Europe, N=43): > 32 µg/mL
- MIC90 (Acinetobacter spp; N America, N=42): 8 µg/mL (≈ 13.7 µM)
SMILES: NCC[C@H](O)C(=O)N[C@@H]1C[C@H](N)[C@@H](O[C@H]2O[C@H](CN)[C@@H](O)[C@H](O)[C@H]2O)[C@H](O)[C@H]1O[C@H]1O[C@H](CO)[C@@H](O)[C@H](N)[C@H]1O [Amikacin]
- % R (resistance) (E. coli ESBL−; Asia/Pac, Eucast breakpoints): 0.4%
- % R (resistance) (E. coli ESBL−; Europe, Eucast breakpoints): 0.3%
- % R (resistance) (E. coli ESBL−; L. Amer, CLSI breakpoints): 0%
- % R (resistance) (E. coli ESBL−; N America, CLSI breakpoints): 0%
- % R (resistance) (E. coli ESBL+; Asia/Pac, Eucast breakpoints): 8.2%
- % R (resistance) (E. coli ESBL+; Europe, Eucast breakpoints): 2.2%
- % R (resistance) (E. coli ESBL+; L. Amer, CLSI breakpoints): 1.2%
- % R (resistance) (E. coli ESBL+; N America, CLSI breakpoints): 0.7%
- % R (resistance) (K. pneumoniae ESBL−; Asia/Pac, Eucast breakpoints): 0.5%
- % R (resistance) (K. pneumoniae ESBL−; Europe, Eucast breakpoints): 0.3%
- % R (resistance) (K. pneumoniae ESBL−; L. Amer, CLSI breakpoints): 0%
- % R (resistance) (K. pneumoniae ESBL−; N America, CLSI breakpoints): 0%
- % R (resistance) (K. pneumoniae ESBL+; Asia/Pac, Eucast breakpoints): 23.4%
- % R (resistance) (K. pneumoniae ESBL+; Europe, Eucast breakpoints): 15.9%
- % R (resistance) (K. pneumoniae ESBL+; L. Amer, CLSI breakpoints): 14.8%
- % R (resistance) (K. pneumoniae ESBL+; N America, CLSI breakpoints): 2.8%
- % R (resistance) (K. oxytoca; Asia/Pac, Eucast breakpoints): 0%
- % R (resistance) (K. oxytoca; Europe, Eucast breakpoints): 0%
- % R (resistance) (K. oxytoca; L. Amer, CLSI breakpoints): 8%
- % R (resistance) (K. oxytoca; N America, CLSI breakpoints): 0%
- % R (resistance) (E. cloacae CeftazS; Asia/Pac, Eucast breakpoints): 1%
- % R (resistance) (E. cloacae CeftazS; Europe, Eucast breakpoints): 1.1%
- % R (resistance) (E. cloacae CeftazS; L. Amer, CLSI breakpoints): 0%
- % R (resistance) (E. cloacae CeftazS; N America, CLSI breakpoints): 0%
- % R (resistance) (E. cloacae CeftazR; Asia/Pac, Eucast breakpoints): 9.5%
- % R (resistance) (E. cloacae CeftazR; Europe, Eucast breakpoints): 1.4%
- % R (resistance) (E. cloacae CeftazR; L. Amer, CLSI breakpoints): 7.1%
- % R (resistance) (E. cloacae CeftazR; N America, CLSI breakpoints): 0%
- % R (resistance) (Enterobacter spp; Asia/Pac, Eucast breakpoints): 3.8%
- % R (resistance) (Enterobacter spp; Europe, Eucast breakpoints): 0%
- % R (resistance) (Enterobacter spp; L. Amer, CLSI breakpoints): 0%
- % R (resistance) (Enterobacter spp; N America, CLSI breakpoints): 1%
- % R (resistance) (A. baumanii; Asia/Pac, Eucast breakpoints): 74.9%
- % R (resistance) (A. baumanii; Europe, Eucast breakpoints): 58.6%
- % R (resistance) (A. baumanii; L. Amer, CLSI breakpoints): 57.5%
- % R (resistance) (A. baumanii; N America, CLSI breakpoints): 42.9%
- % R (resistance) (Acinetobacter spp; Asia/Pac, Eucast breakpoints): 22.2%
- % R (resistance) (Acinetobacter spp; Europe, Eucast breakpoints): 39.5%
- % R (resistance) (Acinetobacter spp; L. Amer, CLSI breakpoints): 22.2%
- % R (resistance) (Acinetobacter spp; N America, CLSI breakpoints): 9.5%
